Source: patent US10905744B2, “Pharmaceutical formulations for the oral delivery of peptide drugs” (Cyprumed GmbH, priority 2015, dated 2021)
Blank lines part the entries; values can stand above or below the compound they belong to.

Key:
[1] = Pharmacokinetic profiles of PTH(1-34) formulations after intestinal administration (Example 3); format: in vivo, Sprague Dawley rats; conditions: relative to PTH(1-34) s.c.
Experimental: Teriparatide (PTH1-34) was dosed subcutaneously in volume of 1 ml/kg (final concentration 0.024 mg/ml teriparatide) to anaesthetized rats. TER001 and TER002 were dosed into ileum in volume of 0.4 mi/kg (final concentration 0.24 mg/ml teriparatide) to anaesthetized rats. […] The teriparatide plasma concentrations were determined using commercial pTH (1-34) human ELISA kit (Biovendor, EU, cat. number RS-1163.0001).

[2] = Pharmacokinetic profile of octreotide formulations after administration into proximal jejunum (Example 8)
Experimental: The formulations OCT002, OCT003 and OCT004 were dissolved in an octreotide stock solution 5-10 min prior to dosing into proximal jejunum in volume of 0.4 ml/kg to anaesthetized rats. The final octreotide concentration of each formulation was 0.36 mg/kg. Blood was taken from tail vessels at the time points 0, 10, 20, 40, 60, 90 and 120 min after dosing. The octreotide plasma concentration was determined using commercial octreotide kit (Peninsula Laboratories International, Inc., USA, cat.number S-1342.0001).

[3] = study comparing aprotinin with aminocaproic acid; cited from earlier work
[4] = molecular target: chymotrypsin (Bos taurus, UniProt P00766); experiment: Chymotrypsin inhibition, BTPNA substrate, absorbance at 405 nm (Examples 9, 13-19, 23, 24, 27, 30, 31); conditions: for Inhibition %: Example 15
Experimental: CuSO4.5H2O dilutions in 10 mM TRIS buffer pH 7 to 10 mM, 5 mM, 2.5 mM 1.25 mM Benzoyl-Tyrosine p-nitroanilide (BTPNA): 0.5 mg/mL BTPNA in Acetone
Study: • (1) 100 μl buffer (10 mM TRIS, pH=7)+50 μl Chymotrypsin Stock+50 μl BTPNA • (2) 80 μl buffer (10 mM TRIS, pH=7)+20 μl CuSO4 stock (10 mM)+50 μl Chymotrypsin Stock+50 μl BTPNA • (3) 80 μl buffer (10 mM TRIS, pH=7)+20 μl CuSO4 dilut. (5 mM)+50 μl Chymotrypsin Stock+50 μl BTPNA • (4) 80 μl buffer (10 mM TRIS, pH=7)+20 μl CuSO4 stock (2.5 mM)+50 μl Chymotrypsin Stock+50 μl BTPNA • (5) 80 μl buffer (10 mM TRIS, pH=7)+20 μl CuSO4 dilut. (1.25 mM)+50 μl Chymotrypsin Stock+50 μl BTPNA
Final copper concentrations: 1 mM, 0.5 mM, 0.25 mM, 0.125 mM.
10 mM CuSO4 and Copper gluconate stock solution were diluted 1:1 with 10 mM TRIS buffer pH 7
Study: • (1) 100 μl buffer (10 mM TRIS, pH=7)+50 μl Chymotrypsin Stock+50 μl BTPNA • (2) 80 μl buffer (10 mM TRIS, pH=7)+20 μl CuSO4 dil. (5 mM)+50 μl Chymotrypsin Stock+50 μl BTPNA • (3) 80 μl buffer (10 mM TRIS, pH=7)+20 μl Copper gluconate dilut. (5 mM)+50 μl Chymotrypsin Stock+50 μl BTPNA • (4) 100 μl Cu-bisglycinate stock (0.5 mM)+50 μl Chymotrypsin Stock+50 μl BTPNA
10 mM CuSO4 stock solution was diluted 1:1 with 10 mM TRIS Puffer pH 7
Study: • (1) 30 μl buffer (10 mM TRIS, pH=7)+20 μl CuSO4 dil. (5 mM)+100 μl Chymotrypsin Stock: 30 min. incubation, then addition of 50 μl BTPNA • (2) 30 μl buffer (10 mM TRIS, pH=7)+100 μl Chymotrypsin Stock: 30 min. incubation, then addition of 20 μl CuSO4 dil. (5 mM)+50 μl BTPNA
Final copper concentration: 0.5 mM
Iron(II)-bisglycinate solution containing 1.86 mM of iron in 10 mM TRIS buffer pH 7 was prepared
Cu(II)-gluconate solution containing 2.0 mM of copper in 10 mM TRIS buffer pH 7 was prepared
Study: • (1) 100 μl buffer (10 mM TRIS, pH=7)+50 μl Chymotrypsin Stock+50 μl BTPNA • (2) 100 μl iron(II)-bisglycinate+50 μl Chymotrypsin Stock+50 μl BTPNA • (3) 100 μl copper(II)-gluconate+50 μl Chymotrypsin Stock+50 μl BTPNA
Values were corrected (subtraction of blank). Inhibition was calculated by setting the absorption value of (1) at each time-point as 100%.
Iron(II)-bisglycinate solution containing 0.46 mM of iron in 10 mM TRIS buffer pH 7 was prepared
Cu(II)- bisglycinate solution containing 0.46 mM of copper in 10 mM TRIS buffer pH 7 was prepared
Study: • (1) 100 μl buffer (10 mM TRIS, pH=7)+50 μl Chymotrypsin Stock+50 μl BTPNA • (2) 100 μl iron(II)-bisglycinate+50 μl Chymotrypsin Stock+50 μl BTPNA • (3) 100 μl copper(II)-bisglycinate+50 μl Chymotrypsin Stock+50 μl BTPNA
Values were corrected (subtraction of blank). Inhibition (%) was calculated by setting the absorption value of (1) at each time-point as 100% degradation.
Values were corrected (subtraction of blank). pH was confirmed to be pH 7 after the experiment.
0.025 mg/ml Chymotrypsin, 0.05 mg/mL Benzoyl-Tyrosine p-nitroanilide (BTPNA). Lauryl glutamate: 0.25 mg/ml; copper (as copper gluconate): 0.035 mg/ml.
0.025 mg/ml Chymotrypsin, 0.05 mg/mL Benzoyl-Tyrosine p-nitroanilide (BTPNA). Lauryl glutamate: 0.25 mg/ml; iron (as iron gluconate): 0.03 mg/ml.
100 μl 50 mM TRIS pH 7+50 μL Chymotrypsin Stock+50 μL BTPNA Stock
50 μl Beta-cyclodextrin+50 μl 50 mM TRIS pH 7+50 μL Chymotrypsin Stock+50 μL BTPNA Stock
50 μl copper gluconate+50 μl 50 mM TRIS pH 7+50 μL Chymotrypsin Stock+50 μL BTPNA Stock
50 μl copper gluconate+50 μl Beta-cyclodextrin+50 μL Chymotrypsin Stock+50 μL BTPNA Stock
50 μl copper gluconate+50 μl trisodium phosphate+50 μL Chymotrypsin Stock+50 μL BTPNA Stock
50 μl iron gluconate+50 μl trisodium phosphate+50 μL Chymotrypsin Stock+50 μL BTPNA Stock
Experiments were carried out at pH 7 in 50 mM TRIS buffer.

[5] = molecular target: T1, trypsin (Bos taurus, UniProt P00760); experiment: Trypsin inhibition, BAPNA substrate, absorbance at 405 nm (Examples 10-12, 20-22, 25, 26, 28, 29, 33); format: biochemical; conditions: for inhibition of trypsin: 50 mM TRIS pH 7
T1 construct: gene PRSS1
T1 sequence (P00760 24-246): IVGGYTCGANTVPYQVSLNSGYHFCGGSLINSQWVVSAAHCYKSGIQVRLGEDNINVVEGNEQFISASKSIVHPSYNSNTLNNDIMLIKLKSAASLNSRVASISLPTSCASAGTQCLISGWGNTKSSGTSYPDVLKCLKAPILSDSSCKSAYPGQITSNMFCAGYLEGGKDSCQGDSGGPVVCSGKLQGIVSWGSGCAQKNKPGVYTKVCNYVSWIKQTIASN
Experimental: 100 mg/ml copper gluconate in 50 mM TRIS pH 7; pH was adjusted to pH 7; stock solution was diluted to the following concentrations: 50 mg/ml, 25 mg/ml, 12.5 mg/ml, 5 mg/ml, 6.25 mg/ml, 3.125 mg/ml, 2.5 mg/ml, 1.25 mg/ml, 0.625 mg/ml, 0.313 mg/ml, 0.156 mg/ml and 0.078 mg/ml
0.5 mg/mL Benzoyl-Arginine p-nitroanilide (BAPNA)
100 μl 50 mM TRIS pH 7+50 μL Trypsin Stock+50 μL BAPNA Stock
100 μl Copper solution (according to the above described dilutions)+50 μL Trypsin Stock+50 μL BAPNA Stock
Absorption was measured after 15 minutes at 405 nm.
Values were corrected (subtraction of blank).
100 mg/ml Zinc bisglycinate in 50 mM TRIS pH 7; pH was adjusted to pH 7; stock solution was diluted to the following concentrations: 50 mg/ml and 25 mg/ml
100 μl Zinc solution (according to the above described dilutions)+50 μL Trypsin Stock+50 μL BAPNA Stock
10 mg/ml iron gluconate in 50 mM TRIS pH 7; pH was adjusted to pH 7; stock solution was diluted to the following concentrations: 5 mg/ml, 2.5 mg/ml, 1.25 mg/ml and 0.625 mg/ml
100 μl Iron solution (according to the above described dilutions)+50 μL Trypsin Stock+50 μL BAPNA Stock
Absorption was measured directly at 405 nm.
Benzoyl-Arginine p-nitroanilide (BAPNA): 0.5 mg/ml in 50 mM TRIS pH 7 (centrifuged and supernatant used as stock solution)
Trypsin: […] in 50 mM TRIS pH 7
1 mg/mL iron gluconate in 10 mM TRIS pH 7 (iron content=12%), 0.12 mg/ml iron
12 mg/mL copper lysinate in 10 mM TRIS pH 7 (copper content=3%), 0.12 mg/ml copper
100 μl of the respective salt solution+50 μL Trypsin Stock+50 μL BAPNA Stock
Experiments were carried out at pH 7, 50 mM TRIS.
0.025 mg/ml Trypsin, 0.125 mg/mL Benzoyl-Arginine p-nitroanilide (BAPNA.) Lauryl glutamate:
0.25 mg/ml; copper content (as copper(II)gluconate): 0.035 mg/ml.
Adsorption measurement at 405 nm
0.025 mg/ml Trypsin, 0.125 mg/mL Benzoyl-Arginine p-nitroanilide (BAPNA). lauryl-glutamate:
Absorption measurement at 405 nm
0.025 mg/ml Trypsin, 0.125 mg/mL Benzoyl-Arginine p-nitroanilide (BAPNA). Capryl-glucoside:
Copper sulfate stock solution: 1 mg/ml of copper sulfate was dissolved in 50 mM TRIS pH 7. Copper tartrate stock solution: 1 mg/ml of copper tartrate was dispersed in 50 mM TRIS pH 7 and moderately stirred for 5 minutes. The suspension was then centrifuged at 3′000 rpm for 10 minutes, to separate the insoluble salt. The supernatant was used as stock solution for the experiments.
Zinc orotate stock solution: 1 mg/ml of zinc orotate was dispersed in 50 mM TRIS pH 7 and moderately stirred for 5 minutes. The suspension was then centrifuged at 3′000 rpm for 10 minutes, to separate the insoluble salt. The supernatant was used as stock solution for the experiments.
100 μL of the respective salt solution stock+50 μL Trypsin Stock+50 μL BAPNA Stock
Control: 100 μL of 50 mM TRIS pH 7+50 μL Trypsin Stock+50 μL BAPNA Stock
Final concentrations of protease and substrate were 0.025 mg/ml Trypsin, 0.125 mg/mL
50 μl manganese sulfate+50 μl copper gluconate+50 μL Trypsin Stock+50 μL BAPNA Stock
Absorption measurement at 405 nm; final pH in all solutions was monitored to be pH 7.
3 mg/ml SiO2—suspended in 50 mM TRIS pH 7 and centrifuged; supernatant was used for experiments.
50 μl SiO2+50 μl 50 mM TRIS pH 7+50 μL Trypsin Stock+50 μL BAPNA Stock
50 μl copper gluconate+50 μl SiO2+50 μL Trypsin Stock+50 μL BAPNA Stock
50 μl iron gluconate+50 μl SiO2+50 μL Trypsin Stock+50 μL BAPNA Stock
120 μl 50 mM TRIS pH 7+50 μL Trypsin Stock+50 μL BAPNA Stock
80 μl copper gluconate+40 μl 50 mM TRIS pH 7+50 μL Trypsin Stock+50 μL BAPNA Stock
40 μl copper gluconate+80 μl 50 mM TRIS pH 7+50 μL Trypsin Stock+50 μL BAPNA Stock
80 μl iron gluconate+40 μl 50 mM TRIS pH 7+50 μL Trypsin Stock+50 μL BAPNA Stock
40 μl iron gluconate+80 μl 50 mM TRIS pH 7+50 μL Trypsin Stock+50 μL BAPNA Stock
80 μl iron gluconate+40 μl copper gluconate+50 μL Trypsin Stock+50 μL BAPNA Stock

[6] = GLP-1 peptide formulations with SNAC and trace elements: dissolution in aqua purificata, visual (Example 4); format: physicochemical; conditions: liraglutide 1.8 mg/ml, SNAC 20 mg, trace element 2 mg, disodium phosphate dihydrate, 2 ml aqua purificata
Experimental: Compositions comprising a GLP-1 peptide, a complexing agent (disodium phosphate dihydrate), the absorption enhancer N-(8-[2-hydroxybenzoyl]amino)caprylic acid (SNAC) and various trace elements or metal salts were prepared and dissolved in 2 ml of aqua purificata and examined visually.

[7] = Sprague Dawley, rat, in vivo, sc
[8] = Example 20, solutions 1 mg/mL iron gluconate, 1 mg/mL copper gluconate, 12 mg/mL copper lysinate, FIG. 11
[9] = Example 33, stocks 1 mg/ml copper(II)gluconate, 1 mg/ml iron(II)gluconate, 40 or 80 μl, pH 7, FIG. 23

F [1]: 100 ± 23%
Compound: CC[C@H](C)[C@H](NC(=O)[C@H](CCC(=O)O)NC(=O)[C@H](CO)NC(=O)[C@@H](NC(=O)[C@@H](N)CO)C(C)C)C(=O)N[C@@H](CCC(N)=O)C(=O)N[C@@H](CC(C)C)C(=O)N[C@@H](CCSC)C(=O)N[C@@H](Cc1cnc[nH]1)C(=O)N[C@@H](CC(N)=O)C(=O)N[C@@H](CC(C)C)C(=O)NCC(=O)N[C@@H](CCCCN)C(=O)N[C@@H](Cc1cnc[nH]1)C(=O)N[C@@H](CC(C)C)C(=O)N[C@@H](CC(N)=O)C(=O)N[C@@H](CO)C(=O)N[C@@H](CCSC)C(=O)N[C@@H](CCC(=O)O)C(=O)N[C@@H](CCCN=C(N)N)C(=O)N[C@H](C(=O)N[C@@H](CCC(=O)O)C(=O)N[C@@H](Cc1c[nH]c2ccccc12)C(=O)N[C@@H](CC(C)C)C(=O)N[C@@H](CCCN=C(N)N)C(=O)N[C@@H](CCCCN)C(=O)N[C@@H](CCCCN)C(=O)N[C@@H](CC(C)C)C(=O)N[C@@H](CCC(N)=O)C(=O)N[C@@H](CC(=O)O)C(=O)N[C@H](C(=O)N[C@@H](Cc1cnc[nH]1)C(=O)N[C@@H](CC(N)=O)C(=O)N[C@@H](Cc1ccccc1)C(=O)O)C(C)C)C(C)C [PTH (1-34) s.c., Teriparatide]

Compound: C[C@@H](O)[C@@H]1NC(=O)[C@H](CCCCN)NC(=O)[C@@H](Cc2c[nH]c3ccccc23)NC(=O)[C@H](Cc2ccccc2)NC(=O)[C@@H](NC(=O)[C@H](N)Cc2ccccc2)CSSC[C@@H](C(=O)N[C@H](CO)[C@@H](C)O)NC1=O [Reference (s.c.), Octreotide]
ΔAUC(0-120) ([2]; OCT formulations 0.4 ml/kg into proximal jejunum, octreotide 0.36 mg/kg, reference s.c., anaesthetized rats): 14126 ± 2727 ng·min/mL
bioavailability ([2]; Sprague Dawley, rat, in vivo): 100 ± 19%
Cmax [2, 7]: 148 ± 36 ng/mL
Tmax [2, 7]: 1.5 h

Compound: Aprotinin
increase in mortality [3]: 64%

Compound: Copper gluconate
Inhibition % ([4]; 0 minutes, metal ion Fe 0.06 mg/ml (0.92 mM), Cu 0.065 mg/ml (1.0 mM), 10 mM TRIS pH 7): 0%
Inhibition % ([4]; 15 minutes, metal ion Fe 0.92 mM, Cu 1.0 mM): 82%
Inhibition % ([4]; 30 minutes, metal ion Fe 0.92 mM, Cu 1.0 mM): 84%
Inhibition % ([4]; 45 minutes, metal ion Fe 0.92 mM, Cu 1.0 mM): 82%
Inhibition % ([4]; 60 minutes, metal ion Fe 0.92 mM, Cu 1.0 mM): 79%
chymotrypsin inhibition ([4]; Example 18, stocks: copper gluconate 10 mM, EDTA 5 mM, sodium caprylate 4 mg/ml, pH 7, FIG. 9): can inhibit chymotrypsin
chymotrypsin inhibition ([4]; Example 23, lauryl glutamate […], copper […], pH 7, 50 mM TRIS, FIG. 14): can be inhibited
chymotrypsin inhibition ([4]; Example 27, stocks […] copper(II)gluconate, 1 mg/ml beta-cyclodextrin, FIG. 18): can be inhibited
chymotrypsin inhibition ([4]; Example 31, stocks […] copper(II)gluconate, 1.25 mM EDTA, pH 7, 10 mM TRIS, FIG. 22): can be inhibited
inhibition of trypsin ([5]; Example 10, copper gluconate solutions 100 to 0.078 mg/ml, after 15 minutes, FIG. 3): inhibits the proteolytic enzyme trypsin in a dose dependent manner
trypsin inhibition [5, 8]: can be inhibited
trypsin inhibition ([5]; Example 21, lauryl glutamate […], copper […], pH 7, 50 mM TRIS, FIG. 12): can be inhibited
trypsin inhibition ([5]; Example 28, stocks 1 mg/ml copper(II)gluconate, 1 mg/ml manganese(II)sulfate, pH 7, FIG. 19): can be inhibited
trypsin inhibition [5, 9]: can be inhibited
Dissolution in aqua purificata [6]: Clear yellowish solution

Compound: Iron gluconate
chymotrypsin inhibition ([4]; Example 24, lauryl glutamate […], iron 0.03 mg/ml, pH 7, 50 mM TRIS, FIG. 15): can be inhibited
inhibition of trypsin ([5]; Example 12, iron gluconate solutions 10 to 0.625 mg/ml, FIG. 5): inhibits the proteolytic enzyme trypsin in a dose dependent manner
trypsin inhibition [5, 8]: can be inhibited
trypsin inhibition ([5]; Example 22, lauryl-glutamate […], iron 0.03 mg/ml, pH 7, 50 mM TRIS, FIG. 13): can be inhibited
trypsin inhibition ([5]; Example 25, capryl-glucoside […], iron 0.03 mg/ml, pH 7, 50 mM TRIS, FIG. 16): can be inhibited
trypsin inhibition [5, 9]: can be inhibited
Dissolution in aqua purificata [6]: Clear orange solution
